Holding throughout (format): biochemical
For experiment [1], the target named is T1, PTP-MEG2 (Homo sapiens, UniProt P43378).
T1 construct: host or cells: E. coli
T1 sequence (P43378 1-593): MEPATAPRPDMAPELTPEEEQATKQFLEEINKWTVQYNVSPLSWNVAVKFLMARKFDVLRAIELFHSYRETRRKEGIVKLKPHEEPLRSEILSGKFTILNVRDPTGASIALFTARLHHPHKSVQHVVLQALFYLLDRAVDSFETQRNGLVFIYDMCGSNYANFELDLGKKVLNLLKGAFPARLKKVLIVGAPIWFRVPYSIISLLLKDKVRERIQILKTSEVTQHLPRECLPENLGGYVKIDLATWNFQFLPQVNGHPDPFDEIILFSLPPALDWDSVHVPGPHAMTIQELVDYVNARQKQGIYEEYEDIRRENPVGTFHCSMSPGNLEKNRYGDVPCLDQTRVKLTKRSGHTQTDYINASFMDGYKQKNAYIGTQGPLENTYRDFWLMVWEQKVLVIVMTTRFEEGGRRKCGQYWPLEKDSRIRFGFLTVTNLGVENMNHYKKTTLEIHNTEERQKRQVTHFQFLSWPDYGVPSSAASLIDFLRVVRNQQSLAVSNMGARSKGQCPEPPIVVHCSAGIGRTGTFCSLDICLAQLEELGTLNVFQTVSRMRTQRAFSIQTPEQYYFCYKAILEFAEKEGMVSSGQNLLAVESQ
The experiment can be described thus: Enzymatic assay with pNPP as substrate, PTP-MEG2. To be noted: pH 6.0, 37°C 30 min. The method, then:
(§1) Briefly, pNPP was hydrolyzed by PTPs to give para-nitrophenol. Para-nitrophenol converts into para-nitrophenolate (pNP), measured with a spectrophotometer after stopping solution was added. The regents and chemicals used in this assay are as follows: Ni-NTA labeled human recombinant PTPs expressed in E coli; de-phosphorylation assay buffer (50 mM citrate (pH 6.0), 0.1 M NaCl, 1 mM EDTA and 1 mM dithiothreitol (DTT)); substrate (2 mM pNPP) in assay buffer; stopping solution (0.2 M sodium hydroxide). PTPs and test-compounds with geometrically increasing concentrations were mixed in 50 μL buffer in each well of a 96-well plate. An equivalent volume of buffer without PTPs was used as blank control. After pre-incubation for 15 min at room temperature, the substrate (50 μL) was added into each well and incubated at 37°C for 30 min. Stopping buffer was poured into each well on ice and the OD value was read at 405 nm against blank.

The target of experiment [2] is T2, PTP1B (Homo sapiens, UniProt P18031).
T2 construct: host or cells: E. coli
T2 sequence (P18031 1-435): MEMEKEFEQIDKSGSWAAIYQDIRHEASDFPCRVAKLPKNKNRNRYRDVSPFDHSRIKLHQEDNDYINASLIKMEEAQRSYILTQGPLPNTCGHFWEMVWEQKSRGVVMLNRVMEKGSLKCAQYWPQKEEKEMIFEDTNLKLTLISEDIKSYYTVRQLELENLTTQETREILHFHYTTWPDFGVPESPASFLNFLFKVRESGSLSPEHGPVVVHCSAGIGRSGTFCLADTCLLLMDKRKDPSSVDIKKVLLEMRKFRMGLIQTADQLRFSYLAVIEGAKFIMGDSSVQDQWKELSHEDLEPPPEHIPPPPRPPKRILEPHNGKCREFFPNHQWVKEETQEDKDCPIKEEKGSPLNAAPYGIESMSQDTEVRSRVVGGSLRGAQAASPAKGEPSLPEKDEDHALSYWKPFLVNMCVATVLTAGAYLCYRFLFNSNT
The experiment can be described thus: Enzymatic assay with pNPP as substrate, PTP1B. The following applies: pH 6.0, 37°C 30 min. The method, then: as §1

Experiment [3] deals with T3, TCPTP (Homo sapiens, UniProt P17706).
T3 construct: host or cells: E. coli
T3 sequence (P17706 1-415): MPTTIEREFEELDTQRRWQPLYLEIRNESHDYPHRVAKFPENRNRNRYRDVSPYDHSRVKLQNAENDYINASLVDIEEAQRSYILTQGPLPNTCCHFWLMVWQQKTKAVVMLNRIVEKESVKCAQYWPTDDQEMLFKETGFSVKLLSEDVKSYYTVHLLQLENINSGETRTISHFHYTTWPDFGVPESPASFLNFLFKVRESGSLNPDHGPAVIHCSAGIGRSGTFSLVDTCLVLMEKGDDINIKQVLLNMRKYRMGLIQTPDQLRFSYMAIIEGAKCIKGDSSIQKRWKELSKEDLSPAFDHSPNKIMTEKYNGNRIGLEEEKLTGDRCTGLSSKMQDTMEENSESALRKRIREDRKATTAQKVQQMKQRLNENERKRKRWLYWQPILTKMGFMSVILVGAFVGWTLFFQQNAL
The experiment can be described thus: Enzymatic assay with pNPP as substrate, TCPTP. The method, then: as §1

Where two headings read alike, the source gives them in different places.

Among the data in PMC5239439, “Virtual screening, optimization, and identification of a novel specific PTP-MEG2 Inhibitor with potential therapy for T2DM” (Oncotarget, 2016) are IC50 values, retold here.

A word on the IC50: it is the point on the concentration scale where inhibition reaches its midpoint. As for `O=C(CCCSc1nc2ccccc2s1)Nc1cccc2ccccc12` [Compound 4b, 4-(benzo[d]thiazol-2-ylthio)-N-(naphthalen-1-yl)butanamide], the concentration for half-maximal inhibition (IC50) was 4.3 µM in experiment [1]; more than 25 µM in experiment [2]; more than 25 µM in experiment [3] (pNPP substrate, pH 6.0, 37°C 30 min, read-out: IC50 TCPTP).

Consider `O=C(CSc1nc2ccccc2s1)Nc1cccc2ccccc12` [Compound 4a, 2-(benzo[d]thiazol-2-ylthio)-N-(naphthalen-1-yl)acetamide], for which the IC50 in experiment [1] was 3.2 µM; in experiment [2] it was more than 25 µM; in experiment [3], more than 25 µM.
